The values below come from article PMC10780633, “Novel Multi-Target Agents Based on the Privileged Structure of 4-Hydroxy-2-quinolinone” (Molecules, 2023).

Data set [1] in a line: Inhibition of lipid peroxidation of linoleic acid induced by AAPH radical. As to conditions: 100 μM. How it is done:
(§1) In this work, the carboxamides 3a–3u, the quinolinone–cinnamic or benzoic acid hybrids 11a–11g and the reverse amides 16a–16c were tested for their antioxidant activity via five in vitro techniques; (i) the interaction with the stable free radical 2,2-diphenyl-1-picrylhydrazyl (DPPH); (ii) the inhibition of lipid peroxidation; (iii) the hydroxyl radical scavenging ability; (iv) the 2,2-azino-bis(3-ethylbenzothiazoline-6-sulfonic acid (ABTS) radical cation (ABTS·^+) reduction; and (v) the superoxide anion radical scavenging ability.
The assay for the determination of the inhibition of linoleic acid peroxidation induced by the free radical initiator […](2-amidinopropane) dihydrochloride (AAPH) was performed according to the methods of Hadjipavlou-Litina et al., which we have also used in our previous works.

The target of a further data set is T1, soybean lipoxygenase (Glycine max, UniProt P08170).
T1 construct: purchased Sigma Chemical, Co. (St. Louis, MO, USA)
T1 sequence (P08170 1-839): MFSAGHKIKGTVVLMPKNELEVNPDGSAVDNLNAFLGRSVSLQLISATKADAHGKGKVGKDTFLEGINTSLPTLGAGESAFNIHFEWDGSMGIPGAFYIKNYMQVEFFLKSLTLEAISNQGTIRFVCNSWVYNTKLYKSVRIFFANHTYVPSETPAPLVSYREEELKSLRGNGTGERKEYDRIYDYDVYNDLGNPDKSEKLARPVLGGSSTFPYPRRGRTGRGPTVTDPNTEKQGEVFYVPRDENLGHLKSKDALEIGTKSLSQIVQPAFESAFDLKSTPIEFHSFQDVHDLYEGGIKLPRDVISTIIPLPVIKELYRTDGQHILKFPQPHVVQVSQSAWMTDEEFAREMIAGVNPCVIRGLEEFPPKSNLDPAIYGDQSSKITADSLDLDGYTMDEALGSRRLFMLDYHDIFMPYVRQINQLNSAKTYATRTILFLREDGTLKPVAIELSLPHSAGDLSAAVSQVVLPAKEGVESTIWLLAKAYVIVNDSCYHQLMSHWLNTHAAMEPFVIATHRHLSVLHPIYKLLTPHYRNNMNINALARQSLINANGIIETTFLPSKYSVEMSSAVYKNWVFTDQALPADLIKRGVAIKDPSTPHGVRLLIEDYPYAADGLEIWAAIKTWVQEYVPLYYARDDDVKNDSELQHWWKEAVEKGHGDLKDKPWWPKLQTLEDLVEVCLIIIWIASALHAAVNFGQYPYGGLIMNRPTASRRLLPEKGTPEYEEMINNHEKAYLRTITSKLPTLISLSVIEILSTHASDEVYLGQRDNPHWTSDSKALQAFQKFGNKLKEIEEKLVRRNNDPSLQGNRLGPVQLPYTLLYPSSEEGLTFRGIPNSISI
As to the kind of experiment: Soybean LOX inhibition in vitro (UV absorbance-based assay). It counts as biochemical. How it is done:
For this study, the UV absorbance-based soybean LOX assay was used.
The assay for the determination of the inhibition of soybean LOX was performed according to the methods of Hadjipavlou-Litina et al., which we have also used in our previous works.

Data set [2] in a line: Competition with DMSO for hydroxyl radicals. As to conditions: 0.1 mM. How it is done: as §1
The assay was performed according to the methods of Pontiki et al. Trolox was used as a reference compound [78].

A short description of data set [3]: Interaction with the stable free radical DPPH (reducing activity). To be noted: for Interaction with the Free Radical DPPH (%): 100 μM; for DPPH radical scavenging activity, time not specified: reaction time not given. How it is done:
as §1
(In general: DPPH is a stable violet radical that fades when it is reduced.)

The nature of data set [4]: Non-enzymatic superoxide anion radical scavenging assay (PMS). To be noted: 0.1 mM. How it is done:
as §1
The experimental technique used for this assay was performed according to our previous works. Caffeic acid was used as an appropriate standard.

Data set [5] is described as follows: ABTS radical cation decolorization assay. As to conditions: 0.1 mM. As to the method:
as §1
The experimental technique used in this section was performed according to the methods of Pontiki et al.. The results were compared to the appropriate standard inhibitor Trolox.

Details of data set [6]: method as in PMID 16955399, PMID 26834836. As to conditions: more potent than linomide; cited from earlier work.

Structures are written as SMILES.

As to `Cn1c(=O)c(C(=O)NCCc2ccc(O)cc2)c(O)c2ccccc21` [Compound 3o, 4-hydroxy-N-(4-hydroxyphenethyl)-1-methyl-2-oxo-1,2-dihydroquinoline-3-carboxamide], the “Inhibition of Lipid Peroxidation of Linoleic Acid Induced by AAPH Radical (%)” value (from here on “Inhibition of Lipid Peroxidation … (%)”) in data set [1] is 100%. Also, the “Inhibition of Soybean Lipoxygenase % at 0.1 mM” value on soybean lipoxygenase (0.1 mM) is “no”. The “OH% (hydroxyl radical scavenging)” value in data set [2] is on record as 44.3%. The “Interaction with the Free Radical DPPH (%)” value was 20.8% in data set [3] (20 min) and 8.0% in data set [3] (60 min). Besides, the “PMS% (superoxide anion radical scavenging)” value (“PMS%” for short) in data set [4] was “no”. Also, the “ABTS% (ABTS radical cation decolorization)” value (from here on “ABTS%”) in data set [5] was 20.6%.
With `Cc1ccc(NC(=O)c2c(O)c3ccccc3n(-c3ccccc3)c2=O)cc1` [Compound 3r, 4-hydroxy-2-oxo-1-phenyl-N-(p-tolyl)-1,2-dihydroquinoline-3-carboxamide], the “Inhibition of Lipid Peroxidation … (%)” value in data set [1] was determined as 17.1%. For the same compound, the “Inhibition of Soybean Lipoxygenase % at 0.1 mM” value on soybean lipoxygenase (0.1 mM) is 37.4%. Moreover, the inhibition – broadly, the percentage by which the read-out fell short of the control – at 100 µM at soybean lipoxygenase (0.1 mM) was found to be 37.5%. Also, the “OH% (hydroxyl radical scavenging)” value in data set [2] was 50.7%. Moreover, the “Interaction with the Free Radical DPPH (%)” value in data set [3] (20 min) came out at 12.1%; in data set [3] (60 min), 1.2%. Further, the “DPPH radical scavenging activity, time not specified” value in data set [3] is “inactive”. Moreover, the “PMS%” value in data set [4] is “no”. Besides, the “ABTS%” value in data set [5] is reported as “no”.
On to `O=C(Nc1ccc(F)cc1)c1c(O)c2ccccc2n(-c2ccccc2)c1=O` [Compound 3s, N-(4-fluorophenyl)-4-hydroxy-2-oxo-1-phenyl-1,2-dihydroquinoline-3-carboxamide], for which the “Inhibition of Lipid Peroxidation … (%)” value in data set [1] worked out at 28.9%. In addition, the IC50 (usually the concentration at which inhibition is half-maximal) at soybean lipoxygenase is 10 µM. For the same compound, the “OH% (hydroxyl radical scavenging)” value in data set [2] is recorded as 100%. For the same compound, the results for the “Interaction with the Free Radical DPPH (%)” value in data set [3] (20 min) and in data set [3] (60 min) were 21.2% and 8.1%, respectively. Further, the “DPPH radical scavenging activity, time not specified” value in data set [3] is “inactive”. Further, the “PMS%” value in data set [4] is on record as “no”. Besides, in data set [5], the “ABTS%” value was “no”.
For the compound `Cn1c(=O)c(C(=O)Nc2ccncc2)c(O)c2ccccc21` [Compound 3t, 4-hydroxy-1-methyl-2-oxo-N-(pyridin-4-yl)-1,2-dihydroquinoline-3-carboxamide], in data set [1], the “Inhibition of Lipid Peroxidation … (%)” value amounted to 100%. The “Inhibition of Soybean Lipoxygenase % at 0.1 mM” value at soybean lipoxygenase (0.1 mM) is “inactive and no”. The “OH% (hydroxyl radical scavenging)” value in data set [2] was “inactive and no”. In addition, the “Interaction with the Free Radical DPPH (%)” value in data set [3] (20 min) is 19.7%; in data set [3] (60 min) it was 9.5%. Moreover, the “PMS%” value in data set [4] is on record as “no”. Further, the “ABTS%” value in data set [5] is listed as “no”.
As for `CCn1c(=O)c(C(=O)NCCN)c(O)c2ccccc21` [Compound 7, N-(2-Aminoethyl)-1-ethyl-4-hydroxy-2-oxo-1,2-dihydroquinoline-3-carboxamide], the melting point – broadly, the temperature, or range, at which the solid turns liquid – amounted to 161 °C.
For the compound `COc1cccc2c1c(O)c(C(=O)N(C)c1ccc(C(F)(F)F)cc1)c(=O)n2C` [Tasquinimod], the “Anti-tumor potency relative to linomide” value in data set [6] is 30–60 times.
